Test results from patent US7122683B2, “Amides useful as monoamine re-uptake inhibitors” (Pfizer Inc., priority 2004, dated 2006).
Counter-ions that a name gives are not always drawn.

Assays:
[1] = biological target: T1, human noradrenaline transporter (hNET) (Homo sapiens, UniProt P23975); experiment: SPA radioligand binding at human noradrenaline transporter (3H-nisoxetine); details: hNET membranes from HEK-293 cells, Ki from IC50 by Cheng-Prusoff, geometric mean, read-out: NRI Ki
T1 construct: expressed in transfected cells; host or cells: HEK-293
Method: (§1) The compounds were tested for biological activity by their ability to inhibit binding of selective radioligands at the human serotonin and noradrenaline transporters (SERT and NET, respectively), using scintillation proximity assay (SPA) technology. The SPA binding was performed using cellular membrane preparations prepared from cell lines expressing human cDNA encoding either SERT or NET (hSERT, hNET), using the radioligands ^3H-citalopram and ^3H-nisoxetine.
(§2) Human embryonic kidney cells (HEK-293) expressing each transporter were maintained as a continuous culture, using standard cell culture techniques, in 50 mL of growth medium (see Media and Buffers for composition) in 225 cm^2 flasks, at 37° C. in a humidified atmosphere with 5% CO2 present. Cells were passaged from a 90% confluent monolayer at a ratio of 1:3–1:4.
(§3) For cell harvesting, the growth medium was removed from the monolayer and the cells were incubated with cell dissociation solution (Sigma) until showing signs of dissociation. The cells were subsequently knocked from the base of the flask and pelleted by centrifugation for storage (frozen at −80° C.) prior to further use.
(§4) Cell pellets were thawed on ice and resuspended in 3 mL of membrane preparation buffer (see Media and Buffers for composition) per 1 mL of packed cell volume, using a vortex mixer to disperse the cell pellet. After incubation on ice for 10 minutes, the suspension was homogenised for four individual 10 second intervals using a hand-held homogeniser. The homogenate was then centrifuged at 1075×g for 20 minutes at 4° C.
(§5) The supernatants were then collected and retained. […]
(§6) The pooled supernatants were centrifuged at 35000×g for 30 minutes at 4° C., and the supernatants discarded. […] Protein concentrations were then measured and the membrane suspension was finally frozen in aliquots of set volume and stored at −80° C. prior to use in assays.
(§7) The specific SPA bead type differed for each transporter, wheat germ agglutinin-coated yttrium silicate (YSi WGA) SPA beads were used for hSERT and WGA-coated polyvinyltoluene (PVT WGA) SPA beads for hNET assays. For each batch of membrane used, optimal concentrations of bead and membrane were determined
(§8) Tritiated radioligands specific to each transporter (^3H-citalopram for hSERT and ^3H-nisoxetine for hNET) were used. The assay free radioligand concentration was expressed as a percentage of the total free radioligand concentration to give an estimate of the radioligand depletion. […]
(§9) The affinity of the specific radioligand for the respective transporter was determined for each membrane batch at the selected protein and bead concentrations. […]
(§10) The mean KD for a radioligand at a batch of membranes was determined from data from a minimum of three separate assays. […]

[2] = biological target: T2, human serotonin transporter (hSERT) (Homo sapiens, UniProt P31645); experiment: SPA radioligand binding at human serotonin transporter (3H-citalopram); details: hSERT membranes from HEK-293 cells, Ki from IC50 by Cheng-Prusoff, geometric mean, read-out: SRI Ki
T2 construct: expressed in transfected cells; host or cells: HEK-293
Method: as §1, §2, §3, §4, §5, §6, §7, §8, §9, §10

T2 sequence (P31645 whole entry): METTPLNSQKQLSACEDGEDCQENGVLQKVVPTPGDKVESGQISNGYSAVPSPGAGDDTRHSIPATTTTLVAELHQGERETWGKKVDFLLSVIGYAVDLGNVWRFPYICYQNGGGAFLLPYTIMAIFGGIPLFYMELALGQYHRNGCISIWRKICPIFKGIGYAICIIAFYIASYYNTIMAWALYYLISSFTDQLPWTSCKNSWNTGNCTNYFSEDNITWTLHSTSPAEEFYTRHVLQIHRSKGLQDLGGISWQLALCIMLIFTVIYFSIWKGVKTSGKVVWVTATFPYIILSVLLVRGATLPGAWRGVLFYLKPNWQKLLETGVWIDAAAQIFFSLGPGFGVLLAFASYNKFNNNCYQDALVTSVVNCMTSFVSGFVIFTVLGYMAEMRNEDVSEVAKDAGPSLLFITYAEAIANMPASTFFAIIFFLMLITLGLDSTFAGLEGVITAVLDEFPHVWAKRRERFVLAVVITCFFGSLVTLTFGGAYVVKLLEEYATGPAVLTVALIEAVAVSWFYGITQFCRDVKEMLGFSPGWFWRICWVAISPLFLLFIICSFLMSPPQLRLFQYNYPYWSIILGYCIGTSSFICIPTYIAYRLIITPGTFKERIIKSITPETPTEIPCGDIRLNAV
T1 sequence (P23975 whole entry): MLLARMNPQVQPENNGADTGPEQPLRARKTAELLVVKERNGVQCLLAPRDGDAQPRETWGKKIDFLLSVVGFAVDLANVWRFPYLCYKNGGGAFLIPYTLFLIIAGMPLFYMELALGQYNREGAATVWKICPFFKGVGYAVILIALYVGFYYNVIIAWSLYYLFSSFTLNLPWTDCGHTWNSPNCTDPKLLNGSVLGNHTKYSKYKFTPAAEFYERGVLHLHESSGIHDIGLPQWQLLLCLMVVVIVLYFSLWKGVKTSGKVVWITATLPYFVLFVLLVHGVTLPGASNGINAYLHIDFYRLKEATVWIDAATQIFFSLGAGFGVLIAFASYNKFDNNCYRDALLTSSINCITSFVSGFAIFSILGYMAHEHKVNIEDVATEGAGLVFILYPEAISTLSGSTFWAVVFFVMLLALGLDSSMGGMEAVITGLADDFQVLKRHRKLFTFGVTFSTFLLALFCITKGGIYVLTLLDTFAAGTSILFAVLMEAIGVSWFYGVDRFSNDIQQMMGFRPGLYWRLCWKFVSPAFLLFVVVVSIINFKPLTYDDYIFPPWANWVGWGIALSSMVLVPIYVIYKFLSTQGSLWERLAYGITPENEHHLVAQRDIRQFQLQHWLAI

Ki [1] [nM] | Ki [2] [nM] | Structure (SMILES)
11 | 9 | O=C(c1cccc(Cl)c1Cl)N(C1CCCCC1)[C@H]1CCNC1 [Example 6, 2,3-dichloro-N-cyclohexyl-N-[(3S)-pyrrolidin-3-yl]benzamide hydrochloride]
14 | 3 | Cc1c(Cl)cccc1C(=O)N(CC1(C)CC1)[C@H]1CCNC1 [Example 20, 3-chloro-2-methyl-N-[(1-methylcyclopropyl)methyl]-N-[(3S)pyrrolidin-3-yl]benzamide hydrochloride]
15 | 5 | O=C(c1cccc(Cl)c1Cl)N(C1CCCC1)[C@H]1CCNC1 [Example 1, 2,3-dichloro-N-cyclopentyl-N-[(3S)pyrrolidin-3-yl]benzamide hemi-edisylate]
9 | 11 | O=C(c1ccccc1Cl)N(C1CCCCC1)[C@H]1CCNC1 [Example 14, 2-chloro-N-cyclohexyl-N-[(3S)pyrrolidin-3-yl]benzamide]
